US9029329B2, “Caspase-14 activator peptides and compositions comprising said peptides” (ISP Investments Inc., priority 2010, dated 2015)
No end group written: not given here.

Legend:
NHK cells = assay: Comets test on UVB-irradiated NHK cells (DNA damage, Tail Moment); format: cell-based, human
Experimental: For this purpose, NHK cells were: • under condition a: cultured for 24 hours with the peptide compound of sequence SEQ ID NO: 3 at a concentration of 1% and 3%, and then irradiated with UVB radiation at 20 mJ/cm^2, in order to observe the protective effect of the peptide active ingredient on the cells; • under condition b: irradiated, in a first step, with UVB radiation at 20 mJ/cm^2, and then treated for 24 hours with said peptide compound at a concentration of 1% and 3%, in order to observe the repairing effect of the active ingredient on the cells.
The cells were then removed by trypsination from their carrier, and then centrifuged at 900 rpm for 5 minutes before being concentrated and counted.
A specific cell count (25,000 cells) was then incorporated into a 0.75% Low Melting agarose gel, and then deposited on a glass slide previously coated with 1% agarose. The slides were then immersed in a lysis solution for 1.5 hours at 4° C., and then in an alkaline solution for 20 minutes at 4° C. The cells were then lysed and the DNA denatured. The slides were immersed in an electrophoresis solution before applying an electric field (20 V-250 mA). The thus denatured DNA was subjected to migration within an agarose gel at 4° C. Applying a DNA fluorescent dye on the slides (2 μg/ml propidium iodide) allowed the DNA to be observed in the form of comets in those cases where it had been damaged.
Quantification software is used to determine the average Tail Moment applied to each condition being tested. This parameter provides information on the level of DNA damage: the higher it is, the greater the DNA damage.

pro/filaggrin = assay: Pro/filaggrin immunostaining in cultured human skin biopsies; format: cell-based; conditions: peptide at 1% or 3%, 24 hours and 72 hours, dose-dependent and increases with time
Experimental: Samples of human skin were cultured at the air/liquid interface. Under a first condition, the samples were treated with the 1% peptide SEQ ID NO: 1 for 24 hours and 72 hours. Under a second condition, the samples were treated with the same peptide but at a concentration of 3% for 24 hours and 72 hours.
These skin samples were thereafter fixed with formaldehyde and then incorporated in paraffin. Sections 2 to 3 μm in size were then made. Immunostaining was carried out after unmasking specific sites by incubation in pepsin. Immunostaining was then performed by means of a filaggrin-specific mouse monoclonal antibody (Tebu Santa Cruz), followed by a secondary antibody, coupled with a fluorescent marker. The skin sections were then examined using an epifluorescence microscope (Nikon® Eclipse E600 microscope).

caspase-14 [1] = assay: Caspase-14 expression by Western Blot in NHKs with or without caspase-14 siRNA; format: cell-based, human
Experimental: NHK cells were cultured in 6-well plates up to a confluence of 60% and then treated with 20 μL of 1%-peptide SEQ ID NO: 2. Then, 100 μL of a previously prepared mixture containing the siRNA of caspase-14 and the transfecting agent were carefully added dropwise, on a well per well basis. The cell culture plate was incubated at 37° C. and at 5% CO2 for 72 hours. The culture medium was renewed every 2 days. Four conditions were implemented: • condition 1: control containing no siRNA nor peptide active ingredient • condition 2: siRNA-transfected cells, containing no peptide active ingredient • condition 3: cells that are not transfected but treated with the peptide active ingredient • condition 4: cells transfected with siRNA, and treated with the peptide active ingredient
The quantification of caspase-14 expression is observed using the conventional immunoblotting technique (Western Blot) carried out by means of an anti-caspase-14 antibody and according to a conventional protocol. To analyze the compensation brought about by the peptide in the NHKs transfected with siRNA, a comparison was performed with respect to non-treated NHKs whose gene had not been extinguished by siRNA.

caspase-14 [2] = assay: Caspase-14 expression in normal human keratinocytes by immunofluorescence; format: cell-based; conditions: NHKs, peptide at 1% or 3%, 24 hours; dose-dependent, greater at 3% than at 1%
Experimental: Cultured normal human keratinocytes, NHKs, were treated with 1% or 3%-peptide SEQ ID NO: 2 for 24 hours. The cells were then washed, fixed with 3.7%-paraformaldehyde using 0.1%-triton in the presence of bovine serum albumin (BSA) (diluted to 1/100th). The cells were incubated in the presence of a caspase-14-specific mouse monoclonal antibody (BD Biosciences), and then of a secondary antibody, coupled with a fluorescent marker. The cells were then examined by means of an epifluorescence microscope (Nikon® Eclipse E600 microscope).

[3] = test system: cyclobutane-pyrimidine dimers; assay: CPD immunostaining on human skin biopsies subjected to UVB radiation; format: cell-based; conditions: UVB 200 mJ/cm^2, then topical 1% or 3% solution for 24 hours; repair dose-dependent
Experimental: Human skin biopsies were cultured at the air/liquid interface. These biopsies were subjected to UVB radiation at 200 mJ/cm^2. After irradiation, under a first condition, a 1%-solution of peptide SEQ ID NO: 2 was applied topically to the biopsies for 24 hours. Under a second condition, a 3%-solution of peptide SEQ ID NO: 2 was applied topically for 24 hours. Control conditions are achieved by the topical application of a PBS solution after irradiation.
For staining the cyclobutane-pyrimidine dimers, the skin biopsies were incorporated into paraffin and histological 3 μm thick sections were made. The slides were deparaffinized, hydrated and subjected to immunostaining with an antibody directed against cyclobutane-pyrimidine dimers (MBL D194-1, mouse monoclonal), followed by a suitable secondary antibody (Invitrogen™ A21202), coupled with a fluorescent marker. The skin sections were then examined with an epifluorescence microscope (Nikon® Eclipse E 80i microscope).

Asn-Arg-Ile-Gln-Ala-Cys-Arg-Gly-NH2 (NRIQACRG-NH2) [peptide SEQ ID NO: 3]
Tail Moment decrease (NHK cells; condition a: 24 hours pretreatment at 1%, then UVB 20 mJ/cm^2, vs UVB control): 57% | Tail Moment decrease (NHK cells; condition a: 24 hours pretreatment at 3%, then UVB 20 mJ/cm^2, vs UVB control): 57% | Tail Moment decrease (NHK cells; condition b: UVB 20 mJ/cm^2, then 24 hours treatment at 1%): 31% | Tail Moment decrease (NHK cells; condition b: UVB 20 mJ/cm^2, then 24 hours treatment at 3%): 58%

Asp-Pro-Ile-Gln-Ala-Cys-Arg-Gly-NH2 (DPIQACRG-NH2) [peptide SEQ ID NO: 1]
pro/filaggrin staining (pro/filaggrin): increase

Ile-Gln-Ala-Cys-Arg-Gly-NH2 (IQACRG-NH2) [peptide SEQ ID NO: 2]
increase in caspase-14 protein expression with respect to the control (caspase-14 [1]; non-transfected NHKs, 1% peptide, 72 hours (condition 3 vs condition 1)): 20.9% | decrease in caspase-14 protein expression with respect to the control conditions (caspase-14 [1]; siRNA-transfected NHKs treated with 1% peptide, 72 hours (condition 4 vs condition 1)): 14% | light intensity (caspase-14 fluorescence) with respect to the control conditions (caspase-14 [2]): increase | CPD fluorescence compared with the control conditions with UVB radiation [3]: much weaker fluorescence
